Read-outs that look alike come from different tables or passages of the source. Marks after values point to notes of the source that are not given here.
Key:
[1] = test system: Ross 308 male broilers; test: Growth performance of broiler chickens fed two proteolytic enzymes supplemented with vitamin C (Example 3); format: in vivo; conditions: for FCR / FI / WG: NC diet, Vit. C level 300 mg/kg, alone or with the named enzyme (CIBENZA 350 mg/kg, ProAct 200 mg/kg feed)
Method: A total of 490 day old Ross 308 male broilers were randomly assigned to 7 treatments (6 experimental groups plus one control group) with 10 replicates of 7 birds per replicate. Six experimental groups with two levels of vitamin C (0 and 300 mg/kg feed) and three enzyme treatments: • no feed enzymes, • Novus CIBENZA (Bacillus licheniformis PWD-1 at levels of 350 mg/kg feed), • DSM RONOZYME® ProAct (at levels of 200 mg/kg feed), in a 2×3 factorial design plus one positive control. The diets of the positive control (PC) were based on wheat and soybean meal and were adequate in all nutrients. The other 6 experimental groups were fed with a negative control (NC) diet based also on wheat and soybean meal but containing less protein (97.5%) and digestible amino acids (95.5%) than the PC. The birds were fed starter (1-14 d) diets during the trial.
The birds were fed the starter (1-14 d) diets ad libitum and had free access to water throughout the trial. RONOZYME® NP (CT) and RONOZYME® WX at levels of 200 and 100 mg/kg feed respectively were included in each diet. […] After mixing, the feed was pelleted at 75-80° C.
All birds were reared in cages in an environmentally controlled room and received 23L:1D of lighting regime during the first week and 20L:4D afterward until the end of the trial. The temperature of the room was maintained at 32±1° C. on the day of arrival and adapted according to the age specific requirements of the chickens.
At d 4, a broiler coccidiosis vaccine (Coccivac B®, MSD, Canada) was given as a mild challenge to all birds via oral administration. Body weights and feed intake were recorded at weekly intervals. Mortality was recorded daily. The weight of the dead animals was used to adjust the feed conversion ratio (FCR) which were calculated by dividing total feed intake by weight gain of live plus weight of dead birds per cage, respectively.

[2] = test system: Male broiler (Ross 308) chicks; format: in vivo; conditions: main effect mean (factor: Yes)
Text: The proteolytic enzyme (Ronozyme®ProAct) and Vitamin C (Staye®50) were provided in powder form and a ready to use formulation by DSM Nutritional Products.
Male broiler (Ross 308) chicks were obtained from a local hatchery as day-olds and reared in cage in an environmentally controlled room. On d 0, chicks were individually weighed and 640 birds were allocated on weight basis to 80 cages (8 chicks per cage). The 8 dietary treatments (Table 1) were then randomly assigned to 10 replicate cages each. Experimental diets were fed from 0-21 and 22-35 days.
During week 1, a broiler coccidiosis vaccine (Immucox, Pacificvet, Christchurch, New Zealand) was given via drinking water to all chicks.
The birds received 20-hours of fluorescent illumination and allowed free access to the diets and water. Birds were checked at least three times daily (9.00 am, […]) and any unusual aspect of bird behaviour or condition was recorded. Sick or injured animals were weighed and removed from the study.
The experimental design is a 2×2×2 factorial arrangement of treatments, with two basal control diets (positive control and negative control), two levels of enzyme (with and without) and two levels of vitamin C (with and without).
The two control diets, positive and negative, based on wheat and soybean meal, were mixed for each phase of the study (0-21 and 22-35 d) (Table 2). The PC and NC diets were then used to develop 8 dietary treatments by adding the ProAct enzyme and Vitamin C mixtures. All the diets were fed in pellet form.
Growth performance: Feed and water were available ad libitum during the 35 days experimental period. Body weights and feed intake were recorded on days 7, 14, 21, 28 and 35. Mortality was recorded daily. Feed per gain values were corrected for the body weight of any bird that died or culled during the course of the experiment.
The data were subjected to ANOVA using the General Linear Models procedure of SAS (2004). Significant differences were considered at P<0.05. When a significant F-test was detected, means were separated using the least significant difference test.

[3] = 1-7 d, main effect mean of the 2x3 factorial (NC diet)
[4] = 1-14 d, main effect mean of the 2x3 factorial (NC diet)

SMILES: O=C1O[C@H]([C@@H](O)CO)C(O)=C1O [Vitamin C, L-ascorbic acid]
- FCR ([1]; 1-7 d): 1.141
- FI ([1]; 1-7 d): 157 g/bird
- WG ([1]; 1-7 d): 137 g/bird
- FCR, main effect [1, 3]: 1.156
- FI, main effect [1, 3]: 161 g/bird
- WG, main effect [1, 3]: 140 g/bird
- FCR, main effect ([1]; 1-7 d, main effect mean of the 2x3 factorial (NC diet), listed as Vit. C): 1.156^A
- FCR ([1]; 1-14 d): 1.354^a
- FI ([1]; 1-14 d): 602 g/bird
- WG ([1]; 1-14 d): 445 g/bird
- FCR, main effect [1, 4]: 1.440
- FI, main effect [1, 4]: 635 g/bird
- WG, main effect [1, 4]: 443 g/bird
- FCR, main effect ([1]; 1-14 d, main effect mean of the 2x3 factorial (NC diet), listed as Vit. C): 1.440^A
- FCR, main effect ([1]; d 1 to d 21, birds fed vitamin C vs. 1.516 without, P=0.080): 1.478
- Feed intake, main effect ([2]; 1-21 d post-hatching): 1437 g/bird
- Feed/gain, main effect ([2]; 1-21 d post-hatching): 1.43 g/g
- Weight gain, main effect ([2]; 1-21 d post-hatching): 1006 g/bird
- Feed intake, main effect ([2]; 1-35 d post-hatching): 3809 g/bird
- Feed/gain, main effect ([2]; 1-35 d post-hatching): 1.64 g/g
- Weight gain, main effect ([2]; 1-35 d post-hatching): 2349 g/bird

Reference: patent publication US10765661B2, “Method for improving feed digestibility and growth performance” (DSM IP ASSETS B.V., priority 2015, dated 2020)
